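Values below derive from 48-hour exposures of cells grown in 96-well plates, with endpoints linearly interpolated between the two concentrations bracketing the appropriate inhibition level. At the TGI there is no net growth.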
Key:
Test in all cases: inhibition of tumour cell growth, NCI panel, 48 h
HCT-15 colon = tested on: HCT-15 colon
MOLT-4 leukemia = tested on: MOLT-4 leukemia
HOP-92 NSCLC = tested on: HOP-92 NSCLC
SNB-75 CNS = tested on: SNB-75 CNS
OVCAR-3 ovarian = tested on: OVCAR-3 ovarian
SR leukemia = tested on: SR leukemia
RXF 393 renal = tested on: RXF 393 renal
MDA-MB-231 breast = tested on: MDA-MB-231 breast
OVCAR-8 ovarian = tested on: OVCAR-8 ovarian
SK-OV-3 ovarian = tested on: SK-OV-3 ovarian
HS 578T breast = tested on: HS 578T breast
ACHN renal = tested on: ACHN renal
SK-MEL-28 melanoma = tested on: SK-MEL-28 melanoma
SW-620 colon = tested on: SW-620 colon
SF-295 CNS = tested on: SF-295 CNS
MDA-N = tested on: MDA-N
COLO 205 colon = tested on: COLO 205 colon
MCF7 breast = tested on: MCF7 breast
UACC-62 melanoma = tested on: UACC-62 melanoma
NCI-H23 lung = tested on: NCI-H23 lung
TK-10 renal = tested on: TK-10 renal
T-47D breast = tested on: T-47D breast
NCI-H460 lung = tested on: NCI-H460 lung
SN12C renal = tested on: SN12C renal
IGROV1 ovarian = tested on: IGROV1 ovarian
UACC-257 melanoma = tested on: UACC-257 melanoma
CAKI-1 renal = tested on: CAKI-1 renal
EKVX NSCLC = tested on: EKVX NSCLC
U251 CNS = tested on: U251 CNS
NCI-H226 lung = tested on: NCI-H226 lung
SF-539 CNS = tested on: SF-539 CNS
SK-MEL-5 melanoma = tested on: SK-MEL-5 melanoma
SF-268 CNS = tested on: SF-268 CNS
HCT-116 colon = tested on: HCT-116 colon
MDA-MB-435 = tested on: MDA-MB-435
HL-60(TB) leukemia = tested on: HL-60(TB) leukemia
NCI-H522 lung = tested on: NCI-H522 lung
CCRF-CEM leukemia = tested on: CCRF-CEM leukemia
HOP-62 NSCLC = tested on: HOP-62 NSCLC
MALME-3M melanoma = tested on: MALME-3M melanoma
786-0 renal = tested on: 786-0 renal
OVCAR-5 ovarian = tested on: OVCAR-5 ovarian
PC-3 prostate = tested on: PC-3 prostate
A498 renal = tested on: A498 renal
NCI/ADR-RES ovarian = tested on: NCI/ADR-RES ovarian
K-562 leukemia = tested on: K-562 leukemia
OVCAR-4 ovarian = tested on: OVCAR-4 ovarian
M14 melanoma = tested on: M14 melanoma
KM12 colon = tested on: KM12 colon
HCC-2998 colon = tested on: HCC-2998 colon
BT-549 breast = tested on: BT-549 breast
HT29 colon = tested on: HT29 colon
DU-145 prostate = tested on: DU-145 prostate
RPMI-8226 leukemia = tested on: RPMI-8226 leukemia
UO-31 renal = tested on: UO-31 renal
SK-MEL-2 melanoma = tested on: SK-MEL-2 melanoma
A549 NSCLC = tested on: A549 NSCLC
LOX IMVI melanoma = tested on: LOX IMVI melanoma
SNB-19 CNS = tested on: SNB-19 CNS

CCOc1cc2c(cc1O)C=C[C@@H]1[C@@H]2CC[C@]2(C)[C@@H](O)CC[C@@H]12
TGI (HCT-15 colon): 20.1 µM
TGI (MOLT-4 leukemia): 73.1 µM
TGI (HOP-92 NSCLC): > 100 µM
TGI (SNB-75 CNS): > 58.6 µM
TGI (OVCAR-3 ovarian): 6.74 µM
TGI (SR leukemia): 23.7 µM
TGI (RXF 393 renal): > 96.1 µM
TGI (MDA-MB-231 breast): 28.9 µM
TGI (OVCAR-8 ovarian): > 62.4 µM
TGI (SK-OV-3 ovarian): > 70.2 µM
TGI (HS 578T breast): > 100 µM
TGI (ACHN renal): > 100 µM
TGI (SK-MEL-28 melanoma): > 100 µM
TGI (SW-620 colon): > 35.3 µM
TGI (SF-295 CNS): 5.45 µM
TGI (MDA-N): > 100 µM
TGI (COLO 205 colon): 47.2 µM
TGI (MCF7 breast): > 75.8 µM
TGI (UACC-62 melanoma): > 43.1 µM
TGI (NCI-H23 lung): > 48.1 µM
TGI (TK-10 renal): > 92 µM
TGI (T-47D breast): 77.4 µM
TGI (NCI-H460 lung): 12.5 µM
TGI (SN12C renal): > 77.3 µM
TGI (IGROV1 ovarian): > 75.1 µM
TGI (UACC-257 melanoma): > 100 µM
TGI (CAKI-1 renal): 28.9 µM
TGI (EKVX NSCLC): > 100 µM
TGI (U251 CNS): > 38.3 µM
TGI (NCI-H226 lung): 56.9 µM
TGI (SF-539 CNS): 7.03 µM
TGI (SK-MEL-5 melanoma): 23.6 µM
TGI (SF-268 CNS): > 100 µM
TGI (HCT-116 colon): 16 µM
TGI (MDA-MB-435): 1.36 µM
TGI (HL-60(TB) leukemia): 7.58 µM
TGI (NCI-H522 lung): 7.3 µM
TGI (CCRF-CEM leukemia): > 42.5 µM
TGI (HOP-62 NSCLC): 49.3 µM
TGI (MALME-3M melanoma): 35.6 µM
TGI (786-0 renal): > 43.4 µM
TGI (OVCAR-5 ovarian): > 100 µM
TGI (PC-3 prostate): > 100 µM
TGI (A498 renal): 57.9 µM
TGI (NCI/ADR-RES ovarian): 12.8 µM
TGI (K-562 leukemia): > 100 µM
TGI (OVCAR-4 ovarian): > 100 µM
TGI (M14 melanoma): 28 µM
TGI (KM12 colon): 20.9 µM
TGI (HCC-2998 colon): 18.7 µM
TGI (BT-549 breast): > 100 µM
TGI (HT29 colon): 24.3 µM
TGI (DU-145 prostate): 26.8 µM
TGI (RPMI-8226 leukemia): > 100 µM
TGI (UO-31 renal): > 86.1 µM
TGI (SK-MEL-2 melanoma): 42 µM
TGI (A549 NSCLC): > 100 µM
TGI (LOX IMVI melanoma): 30.4 µM
TGI (SNB-19 CNS): > 55.4 µM

Source: PubChem BioAssay (NCI)
